Measurements as given in patent US11655244B2, “Carbazole compounds and methods of use thereof” (GSNO Therapeutics, Inc, priority 2017, dated 2023).
Entries after “also recorded” stand apart in the source; their conditions may differ. Like-named read-outs stand apart in the source and are kept apart here.

Key:
GSNOR enzyme [1] = biological target: T1, GSNOR enzyme (Homo sapiens, UniProt P11766); test: GSNOR inhibition assay (rate of NADH consumption, 340 nm absorbance); assay type: biochemical; details: Table 2b; read-out: IC50 Micromolar
T1 sequence (P11766 whole entry): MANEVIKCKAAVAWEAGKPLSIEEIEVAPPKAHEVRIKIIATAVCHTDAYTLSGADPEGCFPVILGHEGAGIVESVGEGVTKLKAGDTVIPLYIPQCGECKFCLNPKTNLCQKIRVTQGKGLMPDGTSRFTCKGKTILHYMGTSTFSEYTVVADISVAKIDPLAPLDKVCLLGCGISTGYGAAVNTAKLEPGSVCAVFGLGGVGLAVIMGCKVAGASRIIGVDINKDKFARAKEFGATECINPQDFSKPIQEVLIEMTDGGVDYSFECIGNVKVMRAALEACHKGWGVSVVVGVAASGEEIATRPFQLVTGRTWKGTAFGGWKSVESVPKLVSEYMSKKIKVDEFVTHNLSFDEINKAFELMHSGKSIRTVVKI

GSNOR enzyme [2] = biological target: T1, GSNOR enzyme; test: as above; assay type: biochemical
Method: The following compounds were also prepared based on the methods described herein, using the appropriate starting materials. Table 2a and Table 2b also provides the % GSNOR inhibition at 20 μM of compounds described herein. […] The buffer was 100 mM phosphate buffer (pH 7.4.) The rate of NADH consumption for each well was determined by ultraviolet spectroscopy. Plates were read on a Molecular Devices Spectra Max UV/Visible Spectrophotometer/plate reader and the change in 340 nm absorbance at 25° C. was recorded for each well at 10 sec intervals over the duration of the recording period (2˜5 minutes). The rate was measured from the linear portion of the curve. Final test compound concentration was 20 μM. The mean % inhibition from 3 test compound wells and 5 control wells was measured as the percentage of the mean no compound+enzyme−the mean no enzyme, no compound control.

[3] = system: Bleomycin-induced idiopathic pulmonary fibrosis model in male C57BL/6 mice; test: Bleomycin-induced idiopathic pulmonary fibrosis model; assay type: in vivo; details: 10 mg/kg, i.p., once daily from day 14 to 28
Method: Compound 17 was made-up fresh every 4 days. A required amount of the test compound was weighed in a glass vial and the purity factor was calculated. A stock solution of 1 mg/ml (10 mg/kg) was made in distilled water (pH 8) and the subsequent 3 and 1 mg/kg doses (concentrations) were obtained by serial dilution of the 1 mg/ml stock solution. A clear and transparent solution was observed. Animals were dosed with Compound 17 at 1 mg/kg, 3 mg/kg and 10 mg/kg, i.p (intraperitoneal), once daily from day 14 to 28.
Pirfenidone was weighed in a glass vial and suspended in 0.5% methyl cellulose to obtain a 10 mg/ml formulation. A clear homogenous suspension was observed. Animals were dosed with Pirfenidone at 100 mg/kg, p.o., b.i.d., from day 14 to 28.

[4] = system: Db/db mouse aorta segments; test: Vascular reactivity of aorta segments (tensometer); details: db/db mice; vs vehicle
Method: Vascular reactivity: Db/db mouse aorta segments were equilibrated in oxygenated PBS (95% O2 and 5% CO2) at 37° C. Following equilibration, 1 μM phenylephrine was added to each ring for submaximal contraction. After stabilization, Compound 17 was added to the rings and the effect on the muscle tone of the aorta segments was monitored with a tensometer as dose-responses from 10^-8 M to 10^-5 M for acetylcholine (“Ach”) and A23187 (5-(methylamino)-2-({(2R,3R,6S,8S,9R,11R)-3,9,11-trimethyl-8-[(1S)-1-methyl-2-oxo-2-(1H-pyrrol-2-yl)ethyl]-1,7-dioxaspiro[5.5]undec-2-yl}methyl)-1,3-benzoxazole-4-carboxylic). 8-Isoprostane was measured in plasma and heart homogenates by standard Elisa methods.

[5] = system: non-alcoholic steatohepatitis (NASH) in male C57BL/6 mice; test: Non-alcoholic steatohepatitis (NASH) model, Streptozotocin plus 60% kcal fat diet; assay type: in vivo; details: for liver to body weight ratio: disease control 0.066; for decrease of percentage collagen proportion area (CPA), Masson's trichrome staining, liver: vs disease control
Method: Timed pregnant mice (n=44) were selected for the study. The delivered pups were subcutaneously injected on post-natal day 2 with 200 μg of Streptozotocin and were allowed to remain with the mother until they reached the weanling age. After weanling, the male pups were selected and fed with 60% kcal fat diet (Research Diet-D12492) for next 6 weeks. All the animals were observed once daily for clinical signs and twice daily for morbidity and mortality.
Mice were dosed with vehicle, Compound 17 (at 3 mg/kg or 10 mg/kg) and 10 mg/kg of reference compound (either Obeticholic acid (OCA) or Elafibranor (ELA, GFT505)) once daily before the start of dark cycle (6:00 PM) from day 0 to 21. Animal body weight measurements were made daily for the complete duration of the experiment. Animals were dosed for 21 days (from week 9 to 12) with the test and reference compounds. Blood glucose was estimated before the treatment start, day 11 and on the termination day. Histopathology analysis including the H&E staining, Masson's trichrome staining and the Oil-red-O (ORO) staining was performed for the liver tissues.

[6] = system: collagen induced arthritis model in DBAJ1 mice; test: Collagen induced arthritis model; assay type: in vivo; details: 15 mg/kg daily from day 8
Method: Compound 17 was tested in a collagen induced arthritis model in DBAJ1 mice. Compound 17 was started on day 8 when the arthritis was established, as in a therapeutic model, and the DBAJ1 mice were then treated daily with Compound 17 (15 mg/kg). Mice were challenged with bovine collagen II+complete adjuvant at day 0. Clinical scores were determined as follows: 0=normal; 0.5=erythema and edema in only one digit; 1=erythema and mild edema of the footpad, or ankle or two to five digits; 2=erythema and moderate edema of two joints (footpad, ankle, two to five digits); 3=erythema and severe edema of the entire paw; 4=reduced swelling and deformation leading to an incapacitated limb.
Measurement of anti-collagen antibodies in the collagen induced arthritis model of rheumatoid arthritis in DBAJ1 Mice was by an anti-collagen ELISA kit by standard methods.

NC(=O)CCn1c2ccc(-n3ccnc3)cc2c2ccc(CCC(=O)O)cc21 [Compound 17, 3-(imidazol-1(H)-yl)-7-(2-carboxylethyl)-9(H)-(2-aminocarbonylethyl) carbazole]
IC50 (GSNOR enzyme [1]): 1000 to 5000 nM | inhibition at 20 µM (GSNOR enzyme [2]; Table 2a, test compound 20 μM, pH 7.4, 25° C., read-out: % Inhibit. at 20 μM): 92.8% | inhibition at 20 µM (GSNOR enzyme [2]; Table 2b, test compound 20 uM, read-out: % GSNOR Inhibition at 20 uM): 92.8% | pulmonary fibrosis (Ashcroft score and percentage collagen proportionate area) vs disease control [3]: notable mitigation of pulmonary fibrosis; also recorded: decreased lung fibrosis | vascular reactivity [4]: increased their vascular reactivity | ORO (Oil-Red-O) steatosis score relative to disease control ([5]; 3 mg/kg): −28% | change of liver to body weight ratio compared with disease control ([5]; 3 mg/kg): −18.5% | steatosis and lobular inflammation in the liver as indicated by the NAS ([5]; 3 mg/kg and 10 mg/kg): markedly reduced steatosis and lobular inflammation in the liver | weight put on relative to naïve controls at day 21 ([5]; 3 mg/kg): +1.3% | liver to body weight ratio ([5]; 3 mg/kg): 0.054 | decrease of percentage collagen proportion area (CPA), Masson's trichrome staining, liver ([5]; 3 mg/kg): 29% | ORO (Oil-Red-O) steatosis score relative to disease control ([5]; 10 mg/kg): −52% | change of liver to body weight ratio compared with disease control ([5]; 10 mg/kg): −16.2% | reduction of plasma glucose relative to disease control ([5]; 10 mg/kg, i.p., p<0.01): 17.4% | weight put on relative to naïve controls at day 21 ([5]; 10 mg/kg): −43% | liver to body weight ratio ([5]; 10 mg/kg): 0.055 | decrease of percentage collagen proportion area (CPA), Masson's trichrome staining, liver ([5]; 10 mg/kg): 20% | body weight increase compared with disease controls ([5]; 3 and 10 mg/kg, 21 days of treatment): both less than disease controls | NAS (in words) ([5]; 3 and 10 mg/kg, p<0.05): significantly decreased the NAS | change in body weight (g), Mean ([5]; Day 1, 3 mg/kg once daily): 0.00 g | change in body weight (g), Mean ([5]; Day 1, 10 mg/kg once daily): 0.00 g | change in body weight (g), Mean ([5]; Day 2, 3 mg/kg once daily): 0.54 g | change in body weight (g), Mean ([5]; Day 2, 10 mg/kg once daily): 0.65 g | change in body weight (g), Mean ([5]; Day 3, 3 mg/kg once daily): 0.85 g | change in body weight (g), Mean ([5]; Day 3, 10 mg/kg once daily): 0.96 g | change in body weight (g), Mean ([5]; Day 4, 3 mg/kg once daily): 0.48 g | change in body weight (g), Mean ([5]; Day 4, 10 mg/kg once daily): 0.76 g | change in body weight (g), Mean ([5]; Day 5, 3 mg/kg once daily): 0.35 g | change in body weight (g), Mean ([5]; Day 5, 10 mg/kg once daily): 0.81 g | change in body weight (g), Mean ([5]; Day 6, 3 mg/kg once daily): 0.68 g | change in body weight (g), Mean ([5]; Day 6, 10 mg/kg once daily): 0.84 g | change in body weight (g), Mean ([5]; Day 7, 3 mg/kg once daily): 0.54 g | change in body weight (g), Mean ([5]; Day 7, 10 mg/kg once daily): 0.19 g | change in body weight (g), Mean ([5]; Day 8, 3 mg/kg once daily): 0.21 g | change in body weight (g), Mean ([5]; Day 8, 10 mg/kg once daily): 0.78 g | change in body weight (g), Mean ([5]; Day 9, 3 mg/kg once daily): 0.53 g | change in body weight (g), Mean ([5]; Day 9, 10 mg/kg once daily): 0.80 g | change in body weight (g), Mean ([5]; Day 10, 3 mg/kg once daily): 0.56 g | change in body weight (g), Mean ([5]; Day 10, 10 mg/kg once daily): 0.89 g | change in body weight (g), Mean ([5]; Day 11, 3 mg/kg once daily): 0.40 g | change in body weight (g), Mean ([5]; Day 11, 10 mg/kg once daily): 0.91 g | change in body weight (g), Mean ([5]; Day 12, 3 mg/kg once daily): -0.49 g | change in body weight (g), Mean ([5]; Day 12, 10 mg/kg once daily): -0.08 g | change in body weight (g), Mean ([5]; Day 13, 3 mg/kg once daily): 0.81 g | change in body weight (g), Mean ([5]; Day 13, 10 mg/kg once daily): 0.74 g | change in body weight (g), Mean ([5]; Day 14, 3 mg/kg once daily): 1.10 g | change in body weight (g), Mean ([5]; Day 14, 10 mg/kg once daily): 0.71 g | change in body weight (g), Mean ([5]; Day 15, 3 mg/kg once daily): 0.84 g | change in body weight (g), Mean ([5]; Day 15, 10 mg/kg once daily): 1.01 g | change in body weight (g), Mean ([5]; Day 16, 3 mg/kg once daily): 1.32 g | change in body weight (g), Mean ([5]; Day 16, 10 mg/kg once daily): 1.09 g | change in body weight (g), Mean ([5]; Day 17, 3 mg/kg once daily): 1.38 g | change in body weight (g), Mean ([5]; Day 17, 10 mg/kg once daily): 1.13 g | change in body weight (g), Mean ([5]; Day 18, 3 mg/kg once daily): 1.11 g | change in body weight (g), Mean ([5]; Day 18, 10 mg/kg once daily): 0.97 g | change in body weight (g), Mean ([5]; Day 19, 3 mg/kg once daily): 1.22 g | change in body weight (g), Mean ([5]; Day 19, 10 mg/kg once daily): 1.16 g | change in body weight (g), Mean ([5]; Day 20, 3 mg/kg once daily): 1.56 g | change in body weight (g), Mean ([5]; Day 20, 10 mg/kg once daily): 0.80 g | change in body weight (g), Mean ([5]; Day 21, 3 mg/kg once daily): 1.57 g | change in body weight (g), Mean ([5]; Day 21, 10 mg/kg once daily): 0.89 g | arthritis (clinical score) [6]: inhibits arthritis | production of anti-collagen antibodies ([6]; ELISA): inhibits production of anti-collagen antibodies
